This assay addresses T1, LSD1 (Homo sapiens, UniProt O60341).
T1 construct: endogenous in cells; host or cells: Embryoid bodies formed from control human iPSC line CTR1R-C3
As to the kind of experiment: Embryoid body formation assay with LSD1 inhibitor treatment, RT-qPCR of GTF2I target genes. Type of assay: cell-based. The following applies: control iPSC line, treatment for 5 days at day 0 and day 4, final concentration 5 uM (Oryzon), 10 uM (DDP26095). The procedure: Retrotranscribed cDNAs have been obtained from 1 μg of total DNA-depleted RNA using the superscript VILO retrotranscription kit from Life Technologies according to manufacturer instructions.
For real time q-PCR analysis a total amount of cDNA corresponding to 10-50 ng of starting RNA has been used for each reaction. FAST SYBR green master mix from Life Technologies and 10 μM primers pair have been used.
10 uM RA has been added at day 0 or at day 4. At day 1 EBs have been plated on a low attachment dish and media was replaced with KO-DMEM (+P/S+Glut)(EB media) 20% FBS containing. […] Next, RNA extraction and cDNA preparation has been performed as described above.

Structures can show the parent of a compound that is named as a salt.

Take `N[C@@H]1C[C@H]1c1ccc(NC(=O)c2cccc(N3CCOC3=O)c2)cc1` (relative stereo) [DDP26095, N-[4-[trans-2-aminocyclopropyl]phenyl]-3-(2-oxooxazolidin-3-yl)benzamide hydrochloride]: the “BEND4 mRNA level (RT-qPCR, percentage of GAPDH) upon irreversible LSD1 inhibition” value was “increased”. Under `Cl.N[C@H]1CC[C@H](N[C@@H]2C[C@H]2c2ccccc2)CC1` [Oryzon, (trans)-N1-((1R,2S)-2-phenylcyclopropyl)cyclohexane-1,4-diamine hydrochloride] stands “increased”.

(Values after US11369577B2, “Reprogramming-based models of neurodevelopmental disorders and uses thereof” (IEO—Istituto Europeo di Oncologia S.r.l., priority 2014, dated 2022).)
